# Laboratory results published in patent publication US20020192314A1, “Dietary supplement compositions” (priority 2001, published 2002).
# Test system: LDL cholesterol
# Experiment: LDL cholesterol oxidation lag time, copper ions, absorbance at 234 nm
# Type: biochemical, human
# Settings: copper ions 5 μmole/L
# Method: The antioxidant properties of a dietary supplement can be measured using an assay for LDL cholesterol oxidation. Briefly, blood samples are drawn and LDL cholesterol is isolated. The isolated LDL cholesterol is combined with a dietary supplement to be evaluated, and the time (i.e., lag time) before cholesterol oxidation is observed is measured. Copper ions accelerate the production of conjugated dienes due to oxidation, while antioxidants prolong the onset of diene production. Since dienes absorb light at 234 nm, LDL cholesterol oxidation can be monitored by examining the absorbance at 234 nm as a function of time. Thus, the antioxidant properties of, for example, a dietary supplement or other compound can be evaluated by determining the time elapsed before LDL cholesterol oxidation is observed.
# LDL cholesterol oxidation is usually determined by measuring absorbance at 234 nm (AbS234 nm) as a function of time under oxidative conditions. The antioxidant effectiveness of various grape seed extracts was determined. LDL cholesterol was prepared from human volunteer blood samples as described above. Isolated LDL cholesterol was then mixed with a buffer, vitamin E, or grape seed extract. Copper ions (5 μmole/L final concentration) were added to each sample. Grape seed extracts were prepared at 0.5 or 1.0 mg/L final concentration. […]
substance,measurement,setting,value
Vitamin E,time LDL cholesterol protected from oxidation,,about 125 min
same,LDL oxidation lag time,"grape seed extract 0.5 mg/L, vitamin E amount comparable to blood level after 400 IU",125 min
